Measured values: US12037327B2, “Compounds and methods targeting GPER for treatment of diseases associated with calcium” (Saint Louis University, priority 2018, dated 2024)
Entries after “also recorded” stand apart in the source; their conditions may differ.

Assays:
GPER [1] = target: T1, GPER (Homo sapiens, UniProt Q99527); experiment: calcium mobilization assay, agonists tested against EC50 of GPER antagonist G-36; type: cell-based; conditions: for change in calcium efflux in response to G-36: agonist at 100 nM against EC50 of G-36, normalized; for calcium signal when antagonized with G-36: concentration not given
T1 construct: siRNA was used to knock-down expression of GPER; endogenous in cells; host or cells: HL-60 (human myelocytic leukemia) cells
T1 sequence (Q99527 whole entry): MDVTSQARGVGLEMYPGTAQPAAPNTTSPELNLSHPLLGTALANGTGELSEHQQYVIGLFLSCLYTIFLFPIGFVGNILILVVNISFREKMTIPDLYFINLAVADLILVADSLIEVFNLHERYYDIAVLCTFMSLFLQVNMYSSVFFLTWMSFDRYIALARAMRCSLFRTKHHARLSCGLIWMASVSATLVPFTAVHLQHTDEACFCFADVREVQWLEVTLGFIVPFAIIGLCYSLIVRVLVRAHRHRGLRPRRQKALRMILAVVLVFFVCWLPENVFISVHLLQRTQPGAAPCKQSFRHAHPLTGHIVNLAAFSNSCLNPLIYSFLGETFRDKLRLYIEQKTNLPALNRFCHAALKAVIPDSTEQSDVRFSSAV
Description: Each signal was normalized to the baseline signaling of G-36 and the maximum signal achieved by the specific agonist. Results are shown at 100 nM.
Calcium mobilization signal was assessed with the use of 0.1% pluronic acid and 5 μM Indo-1AM, a ratiometric dye. The EC50 values were determined based upon triplicate runs on triplicate plates. […] Cyclic AMP formation through the Gi/o-pathway was monitored utilizing a homogenous time-resolved fluorescence assay purchased from CisBio. A triplicate was performed and an EC50 value was calculated. […] The EC50 values were determined based upon triplicate runs on a triplicate plates. To confirm that calcium efflux originated from activation of the G protein-coupled estrogen receptor (GPER), a known selective antagonist, G-36 was used to antagonize the signal. […] Additional data can be found in FIG. 9. […] Without wishing to be bound by any theory, it is believed that within the new functionalization of the scaffold the lone pair on the oxygen of furfuran ring system and the nitrogen on pyridinyl ring system work to activate the receptor. […] Based upon neurite outgrowth studies and without wishing to be bound by any theory, it is believed that the compounds may aid in the elongation and connectivity of neurons. This has implication in a variety of neurodegenerative diseases, such as Alzheimer's disease and Parkinson's disease, but also psychiatric illnesses including Austism and Schizophrenia.

[2] = system: E18 embryonic rat cortical neurons; experiment: neurite outgrowth in E18 embryonic rat neurons; type: cell-based; conditions: for neurite outgrowth with GPER antagonist G-15: 100 nM agonist plus 100 nM G-15; for neurite outgrowth: 100 nM agonist, 72 hours, compared to vehicle control
[3] = target: T2, G protein-coupled estrogen receptor (GPER) (Homo sapiens, UniProt Q99527); experiment: HTRF cAMP formation assay in HL-60 cells; type: cell-based; conditions: values with * unexplained
T2 construct: siRNA was used to knock-down expression of GPER; endogenous in cells; host or cells: HL-60 (human myelocytic leukemia) cells
T2 sequence (Q99527 whole entry): as above
Description: For cAMP formation studies to determine potentcy, a homogeneous time resolved fluorescence (HTRF®) components for cAMP was purchased by CisBio (Bedford, MA). HL-60 cells were grown in 10% charcoal-stripped RPMI media for 72 hours prior to assays. Cells were centrifuged and counted with a hemocytometer from Hausser Scientific (Horsham, PA). The total number of cells needed to complete the assay was determined based upon 8,000 cells/well. The determined number of cells was diluted in 5:1 (5×) stimulation buffer contain 500 μM of 3-isobutyl-1-methylxanthine (IBMX) (Sigma Aldrich, Saint Louis, MO). To an HTRF 96-well low volume white plate from CisBio, 2 μL of (5×) agonist was added to the designated wells, followed by 8 μL of col cell suspension. Two controls were run during the experiment to establish basal cAMP formation and […] cAMP with the use of 20 μM forskolin. Cells were covered with a clear plastic film and incubated at 37° C. for 15 mins. During the 15 minutes incubation a 4:1 solution of lysis buffer to dye was prepared individually. After the 15 minute incubation 5 μL of lysis buffer/cAMP-d2 (acceptor) and 5 μL of lysis buffer/monocolonal anti-cAMP Eu3^+ cryptate (donor) were added to all wells. Once added, the plate was sealed, covered with aluminum foil, and incubated at room temperature for 30 mins. After the allotted time cells were read using Flexstation3 and with λex 314 nm and λem 665 nm/λem 620. Antagonism assay format varied slightly. […] To the plate, 2 μL of (5×) antagonist were added dose wise followed by the addition of 6 μL of cold cell suspension to all wells. Controls from the agonism assay remained the same in the antagonism assay. Cells and antagonists were incubated for 20 minutes at 37° C. […] Similar to the agonism assay a 4:1 ratio of lysis buffer to donor/acceptor were prepared. Following the previous incubation period, 5 μL of lysis buffer/cAMP-d2 (acceptor) and 5 μL of lysis buffer/monocolonal anti-cAMP Eu3^+ cryptate (donor) were added to all wells. Cells were allowed to equilibrate at room temperature for 30 minutes before being read at λex 314 nm and λem 665 nm/λem 620.
(§1) Calcium mobilization signal was assessed with the use of 0.1% pluronic acid and 5 μM Indo-1AM, a ratiometric dye. The EC50 values were determined based upon triplicate runs on triplicate plates. […] Cyclic AMP formation through the Gi/o-pathway was monitored utilizing a homogenous time-resolved fluorescence assay purchased from CisBio. A triplicate was performed and an EC50 value was calculated. […] The EC50 values were determined based upon triplicate runs on a triplicate plates.

[4] = target: T2, G protein-coupled estrogen receptor (GPER); experiment: calcium mobilization assay in HL-60 cells (Indo-1AM); type: cell-based; conditions: triplicate runs on triplicate plates, read-out: EC50 (Ca^2+)
Description: For the calcium mobilization studies, Human Myelocytic Leukemia (HL-60) cells were grown in phenol red free media containing 10% activated fetal bovine serum (FBS), 1% Pen-Strep, and 1% Glutamax. Cells were grown to no more than 1×10^6 cells/mL to prevent differentiation before being split. Prior to assay cells were transferred to phenol red free media containing charcoal-stripped FBS. On the day of the assay cells were centrifuged down at 16.4 G for 5 minutes and washed with 50:1 HBSS/HEPES. Cells were resuspended at 1×10^7 cells/mL in 50:1 HBSS/HEPES. To the resuspended cells, […] pluronic acid and 5 uM of fluorescent calcium indicator, Indo-1AM, were added. The dye solution was incubated for 0.5 hrs at room temperature with rocking. After 30 minutes cells were spun down, and resuspended in 50:1 HBSS/HEPES. Cells were placed on ice for at least 5 minutes and then resuspended in 8.5 mL of 50:1 HBSS/HEPES for agonism assays. For agonism assays 160 μL of cell suspension were added to a 96-well plate and were incubated at […] for 20 minutes in a FlexStation® 3 plate reader (Molecular Devices). Inside the plate reader, 40 μL of agonist were added to each well and excited with 350 nm and read at emissions of 405 nm and 490 nm.
as §1

ERβ = target: T3, ERβ (Homo sapiens, UniProt Q92731); experiment: ERβ PolarScreen fluorescence polarization competitor assay; type: binding; conditions: duplicate
T3 construct: purchased Invitrogen (Carlsbad, CA)
T3 sequence (Q92731 whole entry): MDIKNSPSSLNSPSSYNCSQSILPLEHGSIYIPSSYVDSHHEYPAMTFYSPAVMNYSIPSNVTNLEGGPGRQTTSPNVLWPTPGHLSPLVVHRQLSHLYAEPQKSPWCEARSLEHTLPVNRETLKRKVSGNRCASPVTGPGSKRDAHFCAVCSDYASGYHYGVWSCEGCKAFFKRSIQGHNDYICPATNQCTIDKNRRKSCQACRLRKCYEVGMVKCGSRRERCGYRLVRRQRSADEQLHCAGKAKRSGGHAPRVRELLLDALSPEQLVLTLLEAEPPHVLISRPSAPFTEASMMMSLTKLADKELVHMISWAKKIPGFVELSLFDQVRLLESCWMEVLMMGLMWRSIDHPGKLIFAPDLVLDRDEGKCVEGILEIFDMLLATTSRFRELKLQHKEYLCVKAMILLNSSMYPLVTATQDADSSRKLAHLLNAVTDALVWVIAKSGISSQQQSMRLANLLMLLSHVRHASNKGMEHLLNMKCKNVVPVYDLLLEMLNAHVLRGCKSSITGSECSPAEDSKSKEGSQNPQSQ
Description: (§2) FIGS. 3A & 3B show fluorescence polarization studies performed on classical estrogen receptors, ERα and ERβ, to determine off-target binding. Studies were performed in duplicate. […] Overall, it appears that compound 1 binds greater to ERβ than ERα and compound 2 binds to ERα but not ERβ.
(§3) The ERα and ERβ PolarScreen™ Competitor Assays by Invitrogen (Carlsbad, CA) were purchased and utilized to determine binding to the classical nuclear esetrogen recetors, ERα and ERβ. The concentrations of the ERα and ERβ enzyme varied between the two assays. A 4× sample of ERα was prepared for a final concentration of 75 nM. Conversely, a 4× sample of ERβ was prepared for a final concentration of 23 nM within the assay. For both ERα and ERβ a 4× aliquot of Fluoromone was prepared for a final assay concentration of 4.5 nM. Despite the differences in concentration of ERα and ERβ, the binding assay protocol for the two different enzymes remained the same. Drug dilutions were prepared for a 2× dilution in the ER specific buffer that was provided within the assay kit. In addition to the drug dilutions a 2× aliquot of Fluoromone was prepared by adding 10 uL of 4× with 10 uL of ER specific buffer. A 2× dilution of enzyme and fluorophore was achieved by adding equal portions of each to each other. […] The plate was incubated at RT for 2 hours before being read with λex 485 nm and λem 535 nm.

GPER [5] = target: T1, GPER; experiment: calcium mobilization after siRNA knock down of GPER in HL-60 cells; type: cell-based; conditions: HL-60 cells not treated with siRNA; 1 μM
GPER [6] = target: T1, GPER; experiment: cAMP competition study with selective GPER antagonist in HL-60 cells; type: cell-based; conditions: EC50 of G-36 plus 1 μM agonist, compared to agonist alone at 1 μM
Description: In cAMP competition studies HL-60 cells were grown in 10% charcoal-stripped RPMI media for 72 hours prior to assays. Cells were centrifuged and counted with a hemocytometer from Hausser Scientific (Horsham, PA). The total number of cells needed to complete the assay was determined based upon 8,000 cells/well. The determined number of cells was diluted in 5:1 (5×) stimulation buffer contain 500 μM of 3-isobutyl-1-methylxanthine (IBMX) (Sigma Aldrich, Saint Louis, MO). […] Following the incubation period, 2 μL of various concentrations of compound (5×) were added. […] The plate was sealed and incubated at 37° C. for 10 minutes. After 10 minutes a 4:1 ratio of lysis buffer to donor/acceptor were individually prepared and 5 μL of lysis buffer/cAMP-d2 (acceptor) and 5 μL of lysis buffer/monocolonal anti-cAMP Eu3+ cryptate (donor) were added to all wells. The assay plate was sealed and incubated at room temperature for 30 minutes before being read at λex 314 nm and λem 665 nm/λem 620.

ERα = target: T4, ERα (Homo sapiens, UniProt P03372); experiment: ERα PolarScreen fluorescence polarization competitor assay; type: binding; conditions: duplicate
T4 construct: purchased Invitrogen (Carlsbad, CA)
T4 sequence (P03372 1-595): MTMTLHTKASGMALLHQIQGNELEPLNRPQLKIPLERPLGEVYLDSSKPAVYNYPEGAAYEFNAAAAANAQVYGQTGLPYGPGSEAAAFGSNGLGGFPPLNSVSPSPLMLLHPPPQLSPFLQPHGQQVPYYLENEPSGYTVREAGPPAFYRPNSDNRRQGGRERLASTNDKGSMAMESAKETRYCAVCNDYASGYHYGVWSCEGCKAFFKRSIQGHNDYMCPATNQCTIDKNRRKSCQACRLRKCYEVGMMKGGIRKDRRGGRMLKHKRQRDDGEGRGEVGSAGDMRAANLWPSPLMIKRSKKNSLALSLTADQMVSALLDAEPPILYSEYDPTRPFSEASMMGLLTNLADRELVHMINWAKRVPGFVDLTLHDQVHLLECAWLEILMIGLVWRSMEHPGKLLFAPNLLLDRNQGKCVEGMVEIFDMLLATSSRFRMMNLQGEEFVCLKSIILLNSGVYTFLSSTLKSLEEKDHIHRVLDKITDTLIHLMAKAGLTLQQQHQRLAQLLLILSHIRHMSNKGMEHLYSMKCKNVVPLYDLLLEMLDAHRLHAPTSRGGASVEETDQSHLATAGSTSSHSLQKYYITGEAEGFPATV
Description: as §2, §3

SMILES	change in calcium efflux in response to G-36 (GPER [1])	calcium signal when antagonized with G-36 (GPER [1])	neurite outgrowth with GPER antagonist G-15 [2]	neurite outgrowth [2]	EC50 [3] [µM]	EC50 [4] [µM]	binding to ERβ (ERβ)	calcium compared to the vehicle control, no siRNA (GPER [5])	activation of adenylate cyclase and cAMP formation when challenged against G-36 (GPER [6])	binding to ERα (ERα)
CCOCc1ccc(CNc2ccc(C(C)C)cc2C2CCCCC2)o1 [Compound 5]	statistically significant decrease	reduced to basal response	reduction in signal	statistically significant increase	0.389 ± 0.0616	0.0508 ± 0.00581	–	–	–	–
CC(C)c1ccc(NCc2ccoc2)c(C2CCCCC2)c1 [Compound 26]	–	–	significantly diminished	statistically significant increase	–	–	–	–	–	–
CC(=O)c1ccc2c(c1)C1C=CCC1C(c1cc3c(cc1Br)OCO3)N2 (centres unmarked) [Compound G-1, reference compound]	–	–	reduction in signal	statistically significant increase	–	–	–	–	–	–
CCOCc1ccc(CNc2ccc(C(C)C)cc2C2CCCCC2)o1 [Compound 37]	–	–	significantly diminished	statistically significant increase	–	–	–	–	–	–
CC(C)c1ccc(NCc2ccc(C3CCCCO3)o2)c(C2CCCCC2)c1 (centres unmarked) [Compound 4]	significant reduction	–	–	–	0.29 ± 0.058	0.0387 ± 0.0129	–	–	–	–
CC(C)c1ccc(NCc2ccc(CO)o2)c(C2CCCCC2)c1 [Compound 1]	significant increase	–	–	–	1.59	1.3 ± 0.322	exhibit binding; also recorded: appeared to show binding	no statically significant difference	statistically significant reduction	exhibit binding; also recorded: significant binding
COc1ccc(CNc2ccc(C(C)C)cc2C2CCCCC2)cn1 [Compound 6]	–	–	–	–	1.25 ± 0.304	0.0521 ± 0.0121	–	–	–	–
CC(C)c1ccc(NCc2ccc(C3OCCO3)o2)c(C2CCCCC2)c1 [Compound 3]	significant reduction	–	–	–	0.948 ± 0.272	0.0944 ± 0.0118	–	–	–	–
CC(C)c1ccc(NCc2ccoc2)c(C2CCCCC2)c1 [Compound 2]	significant increase	reduced to basal response	reduction in signal	statistically significant increase	1.19	0.699 ± 0.085	exhibit binding; also recorded: binding trend for compound 2 was less consistent	no statically significant difference	statistically significant reduction	exhibit binding; also recorded: significant binding
COCc1ccc(CNc2ccc(C(C)C)cc2C2CCCCC2)o1 [Compound 7]	statistically significant decrease	reduced to basal response	–	–	0.83 ± 0.273	0.0601 ± 0.0182	–	–	–	–
